Columns and labels:
Format in all cases: cell-based
Bak-/- Bax-/- MEFs = experiment: Cell viability, Bak-/- Bax-/- murine embryonic fibroblasts; settings: 48 h
Protocol: Supplementary Figure 4. […] Murine embryonic fibroblasts (MEFs) lacking Bak and Bax were treated with increasing concentrations of A-1155905, A-1208746, A-1210477, staurosporine or bortezomib for 48 h before assessing cell viability. Data represent the mean of triplicate experiments and error bars indicate the standard error of the mean.

[1] = tested on: MCL-1(3B)–BIMS(2A)ΔC complexes; experiment: Live cell redistribution assay, eGFP-MCL-1(3B) and mCherry-BIMS(2A)ΔC, T-REx-293 cells
Source text: To further rule out potential artifacts associated with lysate detergents that can influence interactions between BCL-2 family proteins,[47] we employed a recently described real-time imaging method to assess the effects on BCL-2 family complexes in live cells.[48] Briefly, interacting pairs of BCL-2 family proteins are expressed as fluorescent fusion proteins at stoichiometric levels from a bicistronic expression module integrated into a single site of the genome in T-REx-293 cells. Under basal conditions, both proteins localize primarily to the mitochondria, where the anti-apoptotic proteins (enhanced green fluorescent protein (eGFP)-BCL-2, eGFP-BCL-XL, or eGFP-MCL-1(3B)) sequester their pro-apoptotic counterparts (mCherry-BAD or mCherry-BIMS(2A)ΔC, the latter being a specific binder of MCL-1[48], [49]). Disruption of these complexes can be tracked by measuring the amount of mCherry-labeled BH3-only protein localized specifically to the mitochondria. […]
(§1) Figure 3 A-1210477 inhibits MCL-1-BIM complexes in live cells. […] The decrease in amount of mCherry-BH3 protein localized to the mitochondria was quantified as a function of time as described in the Materials and Methods, normalized to DMSO control, and fitted to a single exponential decay. Each data point represents the mean change in intensity calculated from 10 fields of view, with error bars indicating the S.E.M. (b) T-REx-293 cells stably expressing eGFP-MCL-1(3B) and mCherry-BIMS(2A)ΔC were treated with 50 μM ABT-737 or increasing concentrations (1–25 μM) A-1210477 for 100 min. The decrease in amount of mCherry-BIMS(2A)ΔC localized to the mitochondria was quantified as in panel (a). (c) Representative fluorescence microscopic images of T-REx-293 cells stably expressing eGFP-BCL-2 family and interacting mCherry-BH3-only proteins before and after 300 min of treatment with 10 μM A-1210477 or (d) ABT-737. […]
Experiments were carried out as detailed previously.[48] […] Therefore, the entire cell was identified with a single intensity threshold applied to the eGFP fluorescence, excluding areas identified as mitochondria. […]

NOXA = NOXA levels by immunoblotting in HCC-1806 cells; settings: 8 h, up to 20 μM
Protocol: Figure 1 MCL-1 levels are elevated in cancer cells after treatment with MCL-1-binding small molecules. (a) H929 multiple myeloma cells were treated for 4 h with 10 μM A-1210477 before immunopreciptating MCL-1. […] A control H929 lysate was run in lane 1, and an immunoprecipitation with a non-specific antibody (Ig) was run in lane 2. The positions of molecular weight markers (specified in kiloDaltons) are indicated on the left. (b) HCC-1806 breast cancer cells were incubated with increasing concentrations of A-1210477 (0.1, 0.5, 1, 5, 10, 15, or 20 μM) or bortezomib (2, 10, or 50 nM) for 8 h before assessing MCL-1 and NOXA levels by immunoblotting. β-Actin was probed as a protein loading control. The lower graph depicts reverse transcriptase-PCR quantification of MCL1 mRNA from HCC-1806 cells treated for 8 h with similar concentrations of A-1210477. (c) HCC-1806 cells were incubated with increasing concentrations (0.1, 0.5, 1, 5, 10, and 20 μM) of A-954248, A-962653, or A-1248767 for 24 h before assessing MCL-1 and BCL-XL levels by immunoblotting. β-Actin was probed as a protein loading control
Cells were scraped into cold PBS, pelleted, and then resuspended in 100–200 μl ice-cold insect cell lysis buffer supplemented with protease inhibitors (BD Biosciences Pharmingen, San Diego, CA, USA). Cells were lysed by sonication, and the debris was cleared in a microcentrifuge. […]

BCL-XL–BAD complexes = target: T1, BCL-XL–BAD complexes (Homo sapiens, UniProt Q07817); experiment: Live cell redistribution assay, eGFP-BCL-XL and mCherry-BAD, T-REx-293 cells; settings: 10 μM, 300 min
T1 construct: expressed in transfected cells; host or cells: T-REx-293, bicistronic expression module integrated at a single genomic site
Source text: (§2) To further rule out potential artifacts associated with lysate detergents that can influence interactions between BCL-2 family proteins,[47] we employed a recently described real-time imaging method to assess the effects on BCL-2 family complexes in live cells.[48] Briefly, interacting pairs of BCL-2 family proteins are expressed as fluorescent fusion proteins at stoichiometric levels from a bicistronic expression module integrated into a single site of the genome in T-REx-293 cells. […]
as §1

BCL-2–BAD complexes = target: T2, BCL-2–BAD complexes (Homo sapiens, UniProt P10415); experiment: Live cell redistribution assay, eGFP-BCL-2 and mCherry-BAD, T-REx-293 cells; settings: 10 μM, 300 min
T2 construct: expressed in transfected cells; host or cells: T-REx-293, bicistronic expression module integrated at a single genomic site
Source text: as §2, §1

T1 sequence (Q07817 whole entry, one chain of several): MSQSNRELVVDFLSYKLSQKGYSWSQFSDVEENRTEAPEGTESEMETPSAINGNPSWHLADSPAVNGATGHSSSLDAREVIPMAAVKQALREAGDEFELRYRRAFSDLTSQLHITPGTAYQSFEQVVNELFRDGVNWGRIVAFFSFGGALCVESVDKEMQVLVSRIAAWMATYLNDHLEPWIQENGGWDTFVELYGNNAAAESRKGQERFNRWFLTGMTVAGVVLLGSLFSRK
T2 sequence (P10415 whole entry, one chain of several): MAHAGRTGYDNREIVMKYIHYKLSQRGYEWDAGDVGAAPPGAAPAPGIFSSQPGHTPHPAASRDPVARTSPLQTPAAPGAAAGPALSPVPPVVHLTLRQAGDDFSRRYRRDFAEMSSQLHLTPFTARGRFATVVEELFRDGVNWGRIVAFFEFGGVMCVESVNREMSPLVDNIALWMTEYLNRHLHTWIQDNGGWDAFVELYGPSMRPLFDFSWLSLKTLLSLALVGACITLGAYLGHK

With `Cc1nn(C)c(COc2ccc(N3CCN(S(=O)(=O)N(C)C)CC3)cc2)c1-c1cccc2c(CCCOc3cccc4ccccc34)c(C(=O)O)n(CCN3CCOCC3)c12` [A-1210477] the “killing of Bak-/- Bax-/- MEFs” value (Bak-/- Bax-/- MEFs) was “do not Kill”, the “redistribution of mCherry-BIMS(2A)ΔC from mitochondria” value ([1]; T-REx-293 cells expressing MCL-1(3B)) was “induced dose-dependent redistribution of BIMS(2A)ΔC to the cytosol” and the “lowest concentration at which BIMS(2A)ΔC redistribution could be observed” value ([1]; T-REx-293 cells, 100 min) was 1 µM. The “effect on NOXA levels” value (NOXA) was “no effect”, the “redistribution of mCherry-BAD associated with BCL-XL” value (BCL-XL–BAD complexes) was “no effect” and the “redistribution of mCherry-BAD associated with BCL-2” value (BCL-2–BAD complexes) was “no effect”.

Reference: PMC4669759 (Cell Death & Disease, 2015)
